Measured values reported in the NIST ThermoML archive (doi:10.1021/je500431h).
± gives the expanded uncertainty stated by the source.

Conditions: 101 kPa, Liquid; for electrical conductivity: conductivity meter LF 340 and a standard conductivity cell TetraCon; for mass density: Pycnometric method

C=CCn1cc[n+](CCOC)c1.O=S(=O)([N-]S(=O)(=O)C(F)(F)F)C(F)(F)F
Conditions | electrical conductivity [S/m] | mass density [kg/m3] | viscosity [mPa·s]
308.7 K | 0.546 ± 0.033 | – | –
309 K | – | 1437 ± 2.2 | 23.7 ± 1
313.3 K | 0.627 ± 0.038 | – | –
314 K | – | 1432.3 ± 2.2 | 20.3 ± 0.9
317 K | – | 1429.6 ± 2.2 | 17.8 ± 0.8
318.1 K | 0.72 ± 0.043 | – | –
323.3 K | 0.828 ± 0.05 | – | –
323.5 K | – | 1423.5 ± 2.2 | 14.6 ± 0.6
327.9 K | 0.935 ± 0.056 | – | –
328 K | – | 1419.4 ± 2.2 | 13.1 ± 0.6
332.9 K | 1.06 ± 0.063 | – | –
334 K | – | 1413.9 ± 2.2 | 11.2 ± 0.5
337.6 K | 1.18 ± 0.071 | – | –
338.5 K | – | 1409.9 ± 2.2 | 10 ± 0.4
343 K | 1.33 ± 0.08 | – | –
344 K | – | 1404.9 ± 2.2 | 8.8 ± 0.4
348 K | – | 1401.3 ± 2.2 | 8.2 ± 0.4
348.1 K | 1.48 ± 0.089 | – | –
352 K | 1.6 ± 0.096 | – | –
354.2 K | – | 1395.8 ± 2.2 | 7 ± 0.3
